In patent publication US20240342121A1, “THE USE OF BETA-HYDROXYBUTYRATES FOR THE TREATMENT OR PREVENTION OF ANEURYSMS AND DISSECTIONS” (priority 2021, published 2024):
“Also recorded” adds a separate entry of the source.

How the values were obtained:
[1] = system: senescent SMCs; assay: Cellular viability (cytotoxicity) assay of senescent and normal SMCs; type: cell-based; conditions: premature senescence by H2O2, Arsenite or Nutlin 3a, FIG. 2A
Method: (§1) FIGS. 2A-2L. (a) Cytotoxicity assay of normal smooth muscle cells (NS) and senescent smooth muscle cells (SMCs). Replicative senescent SMCs (RS) and premature senescent SMCs, stimulated by H2O2 (HP), arsenic (Ars), and Nutlin 3a (Nut) treatment were treated with βHB, s-βHB, and ABT-737. (b) Flow cytometry analysis of apoptosis by βHB or s-βHB in radiation (10 Gy)-induced senescent SMC. (c) Quantitation of apoptotic cell and senescent cell after treating βHB and s-βHB in radiation-induced senescent SMC. (d) Representative aorta image of AII-infused mice with post-treatment of ABT-737, βHB and s-βHB. (e) External diameter of abdominal aorta infused with AII and post-treated with ABT-737 βHB and s-βHB. (f) SA-βGal activity assay of the whole aorta infused with AII, and post-treated with ABT-737, KD, or KE. (g) Quantitation of senescent area on aorta of AII-infused mice, and post-treated with KD, KE and ABT-737. (h) TUNEL assay on the abdominal aorta of AII infused mice, and treated with ABT-737, βHB, or s-βHB. SM-α Actin (SMA) and DAPI are co-stained after TUNEL reaction. […]
The clearance of senescent cells that accumulate during the aneurysm development is required to reduce the volume of aneurysm plaque. Thus, the senotherapeutic potential of βHB to reverse AAA progression was evaluated. […]

[2] = system: senescent SMCs; assay: Flow cytometry (FACS) apoptosis analysis, PI and Annexin V; type: cell-based; conditions: FIGS. 2B, 2C
Method: as §1, with “reaction. (i) Caspase 3 activity assay on normal SMCs (NC) treated with βHB, or s-βHB, and ABT-737 comparing to normal cells pretreated with Nutlin-3a. (j) Caspase 3 activity assay on senescent SMCs (SNC) treated with βHB, or s-βHB, and ABT-737 compared to senescent cells pretreated with pifithrin-α.” for “reaction.”

[3] = system: senescent SMCs (SNC); assay: Caspase 3 activity assay on senescent SMCs; type: cell-based; conditions: p53 inhibition by pifithirin-α, FIG. 2J
Method: as §1, with “reaction. (i) Caspase 3 activity assay on normal SMCs (NC) treated with βHB, or s-βHB, and ABT-737 comparing to normal cells pretreated with Nutlin-3a. (j) Caspase 3 activity assay on senescent SMCs (SNC) treated with βHB, or s-βHB, and ABT-737 compared to senescent cells pretreated with pifithrin-α.” for “reaction.”

[4] = in vivo
Text: We established an in vivo tolerance test of βHB and s-βHB (FIGS. 9A and 9B). […] The reduction of the inner diameter of the aortic wall is also dramatic in the treatment of s-βHB in FIG. 9F (Two-way ANOVA, ^###P<0.005, n=10).

[5] = system: Oct4 overexpressed senescent SMCs; assay: Oct4 overexpressed senescent SMCs (SA β-Gal, Western blot); type: cell-based
Text: FIGS. 14A-14B show (a) SA β-Gal activity on Oct4 overexpressed SMCs with or without βHB treatment (2 days). Irradiated SMCs were infected by Lentivirus containing Crispr-dCas9-VP64_Oct4 plasmid prior to treating βHB. The arrow indicates localized senescent cell mass. (b) Western blot analysis after lentivirus (Crispr-dCas9-VP64_Oct4) infection into senescent SMCs without βHB treatment for 1 day or 2 days.
We proposed that Oct4 upregulation in senescence forms senescent spheroid-like cell mass and asymmetric configuration of aneurysms. To validate our central hypothesis, we overexpressed Oct4 in senescent SMCs using the CRISPR-dCas9-VP64 system to determine the role of Oct4. […] Localized increase of senescence may be highly associated with asymmetric dilation of aneurysms. […] We supposed that βHB prevents or reverses Oct4-induced senescence of SMCs, consequently reducing the size of aneurysms. To investigate the role of βHB in aneurysms, we assess the possibility of cellular reprogramming in senescent SMCs in the condition of Oct4 overexpression. […] In particular, a moderate increase of FAP (Fibroblast Activation Protein) provides a potential for reprogramming resulting in transdifferentiation of SMCs to myofibroblast. Recovered SM22 expression in Oct4 overexpressed senescent SMCs supposed that βHB converts the Oct4 function in dedifferentiation into a reprogramming-related role. We considered an βHB-induced epigenetic alteration of senescent cells contributing to Oct4-dependent cellular reprogramming based on this unique observation.

C[C@@H](O)CC(=O)O [βHB, (R)-3-Hydroxybutyrate]
number of senescent SMCs versus normal SMCs [1]: selectively reduced the number of senescent SMCs and not normal SMCs; also recorded: slightly reduced
apoptosis of senescent SMCs [2]: induced targeted apoptosis of senescent SMCs
apoptosis with p53 inhibition [3]: did not induce apoptosis
half-life [4]: 50 min
metabolic elimination rate [4]: faster than s-βHB
SM22 and β-galactosidase in Oct4 overexpressed-senescent cells ([5]; Oct4 overexpressed, FIG. 14B): recovers SMC maturation marker (SM22) and reduced senescence marker (β-galactosidase)
localized senescence, SA β-Gal activity ([5]; Oct4 overexpression by CRISPR-dCas9-VP64, FIG. 14A): significantly reverses or prevents the development of localized senescence
SM22 in senescent SMCs without Oct4 activation ([5]; without Oct4 activation, FIG. 14B): does not recover SM22
